Assay [1] has as its system Staphylococcus capitis (American Type Culture Collection number 35661). Kind of assay: Minimal inhibitory concentration (MIC) against Staphylococcus capitis, two fold serial dilutions in 2xYT broth. Format: cell-based. The settings on record: ATCC35661, Staphylococcus capitis ATCC 35661, 37° C., 18 hours, lowest drug concentration that inhibited visible growth, read-out: MIC (S. capitis). On the procedure:
(§1) Where MIC values are quoted for the compounds of the examples, those results were obtained by the method described in the Biological Example.
(§2) Minimal inhibitory concentrations (MIC) of inhibitors against E. coli strain DH5α (Genotype; F-φ80d/acZΔM 15Δ(lacZYA-argF)U 169 deoR recA1 endA1 hsdR17(rk^−, mk^+)phoA supE44λ^−thi-1 gyrA96 re/A1) obtained from GibcoBRL Life Technologies, or Staphylococcus capitis (American Type Culture Collection number 35661) were determined as follows. Stock solutions of each test compound were prepared by dissolution of the compound in dimethylsulfoxide at 10 mM. For the determination of the minimal inhibitory concentration, two fold serial dilutions were prepared in 2×YT broth (typtone 16 g/l, yeast extract 10 g/l, sodium chloride 5 g/l obtained from BIO 101 Inc, 1070 Joshua Way, Vista, Calif. 92083, USA) to yield 0.05 ml compound-containing medium per well. Inocula were prepared from cultures grown overnight in 2×YT broth at 37° C. Cell densities were adjusted to absorbance at 660 nm (a660)=0.1; the optical density-standardised preparations were diluted 1:1000 in 2×YT broth; and each well inoculated with 0.05 ml of the diluted bacteria. Microtiter plates were incubated at 37° C. for 18 hours in a humidified incubator. The MIC (μM) was recorded as the lowest drug concentration that inhibited visible growth.

In the next assay the test system is E. coli strain DH5α. Kind of assay: Minimal inhibitory concentration (MIC) against E. coli, two fold serial dilutions in 2xYT broth. The assay is classed as cell-based. The note with it: Escherichia coli, read-out: MIC (E. coli). On the procedure: as §1, §2
Where [2] appears, read: E. coli strain DH5α, 2xYT broth, 37° C., 18 hours, lowest drug concentration that inhibited visible growth.

≈ marks a conversion by molar mass, not a printed value. Where two headings read alike, the source gives them in different places.

The MIC is the smallest concentration in the dilution series that meets the test's criterion for growth inhibition.

`CCCC[C@H](CN(O)C=O)C(=O)N[C@H](C(=O)c1ccc(S(C)(=O)=O)cc1)C(C)(C)C` [Example 16, 2(R)-[(N-Formyl-N-hydroxyamino)-methyl]-hexanoic Acid [1′(S)-(4-methanesulfonyl-benzoyl)-2′,2′-dimethyl-propyl]amide]: the MIC in assay [1] stood at 25 µM (≈ 11 µg/mL); in the assay on E. coli strain DH5α (setting [2]) it was 6.25 µM (≈ 2.75 µg/mL).

In the case of `COc1ccc(C(=O)[C@H](NC(=O)[C@@H](CC2CCCC2)CN(O)C=O)C(C)(C)C)cc1` [Example 17, 3-Cyclopentyl-2(S)-[(N-formyl-N-hydroxyamino)-methyl]-N-[1′(R)-(4-methoxybenzoyl)-2′,2′-dimethylpropyl]propionamide], the figures for the MIC (in assay [1]; in the assay on E. coli strain DH5α (setting [2])) were 25 µM (≈ 10.5 µg/mL) and 100 µM (≈ 41.9 µg/mL), respectively.

On to `CCCC[C@H](CN(O)C=O)C(=O)N[C@H](C(=O)c1ccco1)C(C)(C)C` [Example 18, 2(R)-[(N-Formyl-N-hydroxyamino)-methyl]-hexanoic Acid-(1′(S)-(furan-2-carbonyl)-2′,2′-dimethylpropyl)amide], for which the MIC (in assay [1]; with E. coli strain DH5α (setting [2])) was 12.5 µM (≈ 4.41 µg/mL) throughout.

On to `CCCC[C@H](CN(O)C=O)C(=O)N[C@H](C(=O)c1cccn1C)C(C)(C)C` [Example 19, 2(R)-[(N-Formyl-N-hydroxyamino)-methyl]-hexanoic Acid-(2′,2′-dimethyl-1′(S)-(1-methyl-1H-pyrrole-2-carbonyl)-propyl)amide], for which the MIC (in assay [1]; with E. coli strain DH5α (setting [2])) was 12.5 µM (≈ 4.57 µg/mL) in each case.

For the compound `CCCC[C@H](CN(O)C=O)C(=O)N[C@H](C(=O)c1ccc(N)cc1)C(C)(C)C` [Example 20, 2(R)-[(N-Formyl-N-hydroxyamino)-methyl]-hexanoic Acid-(1′(S)-(4-aminobenzoyl)-2′,2′-dimethylpropyl)amide], the MIC in assay [1] worked out at 12.5 µM (≈ 4.72 µg/mL); in the assay with E. coli strain DH5α (setting [2]), 6.25 µM (≈ 2.36 µg/mL).

In the case of `CCCC[C@H](CN(O)C=O)C(=O)N[C@H](C(=O)c1ccc(NC(=O)C(F)(F)F)cc1)C(C)(C)C` [Example 21, 2(R)-[(N-Formyl-N-hydroxyamino)-methyl]-hexanoic Acid-(2′,2′-dimethyl-1′(S)-[4-(2,2,2-trifluoroacetylamino)-benzoyl]-propyl)amide], the MIC (in assay [1]; with E. coli strain DH5α (18 h)) was 6.25 µM (≈ 2.96 µg/mL) throughout.

As for `CCCC[C@H](CN(O)C=O)C(=O)N[C@H](C(=O)c1ccc(NC(C)=O)cc1)C(C)(C)C` [Example 22, 2(R)-[(N-Formyl-N-hydroxyamino)-methyl]-hexanoic Acid-(1′(S)-(4-acetylaminobenzoyl)-2′,2′-dimethylpropyl)amide], the values for the MIC (in assay [1]; in the assay on E. coli strain DH5α (setting [2])) were 3.1 µM (≈ 1.3 µg/mL) and 12.5 µM (≈ 5.24 µg/mL), respectively.

Consider `CCCC[C@H](CN(O)C=O)C(=O)N[C@H](C(=O)c1ccc(NS(C)(=O)=O)cc1)C(C)(C)C` [Example 23, 2(R)-[(N-Formyl-N-hydroxyamino)-methyl]-hexanoic Acid-(1′(S)-(4-methanesulfonylaminobenzoyl)-2′,2′-dimethylpropyl)amide], for which the MIC in assay [1] amounted to 3.1 µM (≈ 1.41 µg/mL); in the assay on E. coli strain DH5α (setting [2]), 50 µM (≈ 22.8 µg/mL).

In the case of `CCCC[C@H](CN(O)C=O)C(=O)N[C@H](C(=O)c1ccc(N2CCOCC2)cc1)C(C)(C)C` [Example 24, 2(R)-[(N-Formyl-N-hydroxyamino)-methyl]-hexanoic Acid-(2′,2′-dimethyl-1′(S)-(4-morpholin-4-ylbenzoyl)-propyl)amide], the figures for the MIC (in assay [1]; in the assay on E. coli strain DH5α (setting [2])) were 3.1 µM (≈ 1.39 µg/mL) and 6.25 µM (≈ 2.8 µg/mL), respectively.

On to `CCCC[C@H](CN(O)C=O)C(=O)N[C@H](C(=O)c1ccc(N2CCN(Cc3ccccc3)CC2)cc1)C(C)(C)C` [Example 25, 2(R)-[(N-Formyl-N-hydroxyamino)-methyl]-hexanoic Acid-(1′(S)-[4-(4-benzylpiperazin-1-yl)-benzoyl]-2′,2′-dimethylpropyl)amide], for which the MIC in assay [1] worked out at 3.1 µM (≈ 1.66 µg/mL); in the assay with E. coli strain DH5α (setting [2]), 50 µM (≈ 26.8 µg/mL).

On to `CCCC[C@H](CN(O)C=O)C(=O)N[C@H](C(=O)c1ccc(N2CCNCC2)cc1)C(C)(C)C` [Example 26, 2(R)-[(N-Formyl-N-hydroxyamino)-methyl]-hexanoic Acid-(2′,2′-dimethyl-1′(S)-(4-piperazin-1-yl-benzoyl)-propyl)amide], for which the figures for the MIC (in assay [1]; in the assay on E. coli strain DH5α (setting [2])) were 12.5 µM (≈ 5.58 µg/mL) and 3.1 µM (≈ 1.38 µg/mL), respectively.

`CCCC[C@H](CN(O)C=O)C(=O)N[C@H](C(=O)c1ccc(N2CCN(C)CC2)cc1)C(C)(C)C` [Example 27, 2(R)-[(N-Formyl-N-hydroxyamino)-methyl]-hexanoic Acid-(2′,2′-dimethyl-1′(S)-[4-(4-methylpiperazin-1-yl)benzoyl]-propyl)amide]: the MIC (in assay [1]; in the assay on E. coli strain DH5α (setting [2])) was 6.25 µM (≈ 2.88 µg/mL) throughout.

`CCCC[C@H](CN(O)C=O)C(=O)N[C@H](C(=O)c1ccc(N2CCN(c3ncccn3)CC2)cc1)C(C)(C)C` [Example 28, 2(R)-[(N-Formyl-N-hydroxyamino)-methyl]-hexanoic Acid-(2′,2′-dimethyl-1′(S)-[4-(4-pyrimidin-2-yl-piperazin-1-yl)-benzoyl]-propyl)amide]: the MIC in assay [1] turned out to be 1.6 µM (≈ 0.839 µg/mL); in the assay with E. coli strain DH5α (setting [2]), 12.5 µM (≈ 6.56 µg/mL).

For `CCCC[C@H](CN(O)C=O)C(=O)N[C@H](C(=O)c1ccc(N2CCN(C3=NCCCN3)CC2)cc1)C(C)(C)C` [Example 29, 2(R)-[(N-Formyl-N-hydroxyamino)-methyl]-hexanoic Acid-(2′,2′-dimethyl-1′(S)-{4-[4-(1,4,5,6-tetrahydropyrimidin-2-yl)-piperazin-1-yl]-benzoyl}-propyl)amide], the MIC was determined as 6.25 µM (≈ 3.3 µg/mL) in assay [1] and 50 µM (≈ 26.4 µg/mL) in the assay on E. coli strain DH5α (setting [2]).

`CCCC[C@H](CN(O)C=O)C(=O)N[C@H](C(=O)c1ccc(N(CCC)CCC)cc1)C(C)(C)C` [Example 30, 2(R)-[(N-Formyl-N-hydroxyamino)-methyl]-hexanoic Acid-(1′(S)-(4-dipropylaminobenzoyl)-2′,2′-dimethylpropyl)amide]: the values for the MIC (in assay [1]; in the assay on E. coli strain DH5α (setting [2])) were 3.1 µM (≈ 1.43 µg/mL) and 100 µM (≈ 46.2 µg/mL), respectively.

With `CCCC[C@H](CN(O)C=O)C(=O)N[C@H](C(=O)c1ccc(NCCC)cc1)C(C)(C)C` [Example 31, 2(R)-[(N-Formyl-N-hydroxyamino)-methyl]-hexanoic Acid-(2′,2′-dimethyl-1′(S)-(4-propylaminobenzoyl)-propyl)amide], the values for the MIC (in assay [1]; with E. coli strain DH5α (setting [2])) were 3.1 µM (≈ 1.3 µg/mL) and 12.5 µM (≈ 5.24 µg/mL), respectively.

For the origin of these results see US6716878B1, “Antimicrobial agents” (Vernalis (Oxford) Limited, priority 1999, dated 2004).
